Drawing on PubChem BioAssay (NCI), this text covers TGI for three compounds.

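Method: 48-hour compound exposure of cells in 96-well plates, five concentrations, linear interpolation of endpoints. TGI is the concentration that stops growth completely.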

Among the test systems are EKVX NSCLC; UACC-62 melanoma; SF-268 CNS; HOP-92 NSCLC; DU-145 prostate; OVCAR-3 ovarian; NCI-H23 lung; K-562 leukemia; UO-31 renal; HCT-116 colon.
What all share (test): DTP human tumour cell line panel, 48 h

Consider `O=C(c1cc2c(c3ccccc13)NC1(CCCCC1)N=C2C(F)(F)F)C(F)(F)F`, for which the TGI (usually the concentration at which net growth stops) in the experiment with EKVX NSCLC worked out at 15.7 µM; in the experiment with UACC-62 melanoma, 13.6 µM; in the experiment with SF-268 CNS, 20 µM; with HOP-92 NSCLC it was 13.4 µM; in the experiment on DU-145 prostate, 19.6 µM; with OVCAR-3 ovarian, 7.81 µM. The TGI with NCI-H23 lung is 12.5 µM; in the experiment with K-562 leukemia, 16.8 µM; in the experiment on UO-31 renal, 11.8 µM; in the experiment with HCT-116 colon, 12.6 µM.

In the case of `CC1C(C#N)(C#N)C(C#N)=C(N)C1(Cl)[N+](=O)[O-]` (stereo not given), the TGI is 41.4 µM in the experiment on EKVX NSCLC; 24 µM with UACC-62 melanoma; 28.7 µM in the experiment on SF-268 CNS; 5.91 µM in the experiment on HOP-92 NSCLC; 30.6 µM with DU-145 prostate; 22 µM in the experiment on OVCAR-3 ovarian. In addition, the concentration for total growth inhibition (TGI) was 35.3 µM in the experiment on NCI-H23 lung, over 100 µM with K-562 leukemia, 29.4 µM in the experiment with UO-31 renal and 20.3 µM in the experiment on HCT-116 colon.

In the case of `O=C(c1ccccc1)N1C(=S)N(c2ccccn2)C(=Nc2ccccc2)C1=Nc1ccccc1`, the TGI with EKVX NSCLC was over 100 µM; in the experiment on UACC-62 melanoma, over 41.3 µM; in the experiment on SF-268 CNS, over 100 µM; in the experiment on HOP-92 NSCLC, 20.8 µM; in the experiment with DU-145 prostate, over 100 µM; in the experiment on OVCAR-3 ovarian it was 45.6 µM. In addition, the TGI is over 36.5 µM in the experiment on NCI-H23 lung, over 60.9 µM in the experiment with K-562 leukemia, 27.1 µM in the experiment with UO-31 renal and over 77.3 µM in the experiment with HCT-116 colon.
